ChEMBL document CHEMBL3046904, “Synthesis, characterization, bioactivity, and POM analyses of isothiochromeno[3,4-e][1,2]oxazines” (2013)

Experiments:
Assay type in all cases: functional
MCF7 [1] = test: Cytotoxicity against Homo sapiens (human) MCF7 assessed as cell growth at 10^-4 M after 48 hr by Alamar Blue assay; details: MCF7, 48 h, read-out: Activity
SF-268 [2] = test: Cytotoxicity against Homo sapiens (human) SF268 assessed as cell growth at 10^-4 M after 48 hr by Alamar Blue assay; details: SF-268, 48 h, read-out: Activity
NCI-H460 [3] = test: Cytotoxicity against Homo sapiens (human) NCI-H460 assessed as cell growth at 10^-4 M after 48 hr by Alamar Blue assay; details: NCI-H460, 48 h, read-out: Activity
SK-MEL-5 = test: Cytotoxicity against Homo sapiens (human) SK-MEL-5 after 48 hr by Alamar Blue assay; details: SK-MEL-5, 48 h
TK-10 = test: Cytotoxicity against Homo sapiens (human) TK10 after 48 hr by Alamar Blue assay; details: TK-10, 48 h
NCI-H226 = test: Cytotoxicity against Homo sapiens (human) NCI-H226 after 48 hr by Alamar Blue assay; details: NCI-H226, 48 h
IGROV-1 = test: Cytotoxicity against Homo sapiens (human) IGROV1 after 48 hr by Alamar Blue assay; details: IGROV-1, 48 h
U-251 = test: Cytotoxicity against Homo sapiens (human) U251 after 48 hr by Alamar Blue assay; details: U-251, 48 h
LOX IMVI = test: Cytotoxicity against Homo sapiens (human) LOXIMVI after 48 hr by Alamar Blue assay
PC-3 = test: Cytotoxicity against Homo sapiens (human) PC3 after 48 hr by Alamar Blue assay; details: PC-3, 48 h
NCI-H460 [4] = test: Cytotoxicity against Homo sapiens (human) NCI-H460 after 48 hr by Alamar Blue assay; details: NCI-H460, 48 h
OVCAR-4 = test: Cytotoxicity against Homo sapiens (human) OVCAR4 after 48 hr by Alamar Blue assay; details: OVCAR-4, 48 h
SR = test: Cytotoxicity against Homo sapiens (human) SR after 48 hr by Alamar Blue assay
OVCAR-8 = test: Cytotoxicity against Homo sapiens (human) OVCAR8 after 48 hr by Alamar Blue assay; details: OVCAR-8, 48 h
MCF7 [5] = test: Cytotoxicity against Homo sapiens (human) MCF7 after 48 hr by Alamar Blue assay; details: MCF7, 48 h
786-0 = test: Cytotoxicity against Homo sapiens (human) 786-0 after 48 hr by Alamar Blue assay; details: 786-0, 48 h
OVCAR-5 = test: Cytotoxicity against Homo sapiens (human) OVCAR5 after 48 hr by Alamar Blue assay; details: OVCAR-5, 48 h
EKVX = test: Cytotoxicity against Homo sapiens (human) EKVX after 48 hr by Alamar Blue assay
HCC 2998 = test: Cytotoxicity against Homo sapiens (human) HCC2998 after 48 hr by Alamar Blue assay; details: HCC 2998, 48 h
COLO 205 = test: Cytotoxicity against Homo sapiens (human) COLO205 after 48 hr by Alamar Blue assay; details: COLO 205, 48 h
HT-29 = test: Cytotoxicity against Homo sapiens (human) HT-29 after 48 hr by Alamar Blue assay; details: HT-29, 48 h
M14 = test: Cytotoxicity against Homo sapiens (human) M14 after 48 hr by Alamar Blue assay; details: M14, 48 h
SF-268 [6] = test: Cytotoxicity against Homo sapiens (human) SF268 after 48 hr by Alamar Blue assay; details: SF-268, 48 h
SF-539 = test: Cytotoxicity against Homo sapiens (human) SF539 after 48 hr by Alamar Blue assay; details: SF-539, 48 h
SF-295 = test: Cytotoxicity against Homo sapiens (human) SF295 after 48 hr by Alamar Blue assay; details: SF-295, 48 h
T47D = test: Cytotoxicity against Homo sapiens (human) T47D after 48 hr by Alamar Blue assay
HOP-62 = test: Cytotoxicity against Homo sapiens (human) HOP62 after 48 hr by Alamar Blue assay; details: HOP-62, 48 h
SN12C = test: Cytotoxicity against Homo sapiens (human) SN12C after 48 hr by Alamar Blue assay
SW-620 = test: Cytotoxicity against Homo sapiens (human) SW620 after 48 hr by Alamar Blue assay; details: SW-620, 48 h
OVCAR-3 = test: Cytotoxicity against Homo sapiens (human) OVCAR3 after 48 hr by Alamar Blue assay; details: OVCAR-3, 48 h
ACHN = test: Cytotoxicity against Homo sapiens (human) ACHN after 48 hr by Alamar Blue assay
K562 = test: Cytotoxicity against Homo sapiens (human) K562 after 48 hr by Alamar Blue assay; details: K562, 48 h
SNB-19 = test: Cytotoxicity against Homo sapiens (human) SNB19 after 48 hr by Alamar Blue assay; details: SNB-19, 48 h
HOP-92 = test: Cytotoxicity against Homo sapiens (human) HOP92 after 48 hr by Alamar Blue assay; details: HOP-92, 48 h
BT-549 = test: Cytotoxicity against Homo sapiens (human) BT549 after 48 hr by Alamar Blue assay; details: BT-549, 48 h
NCI-H522 = test: Cytotoxicity against Homo sapiens (human) NCI-H522 after 48 hr by Alamar Blue assay; details: NCI-H522, 48 h
MDA-MB-435 = test: Cytotoxicity against Homo sapiens (human) MDA-MB-435 after 48 hr by Alamar Blue assay; details: MDA-MB-435, 48 h
SK-MEL-2 = test: Cytotoxicity against Homo sapiens (human) SK-MEL-2 after 48 hr by Alamar Blue assay; details: SK-MEL-2, 48 h
NCI-H322M = test: Cytotoxicity against Homo sapiens (human) NCI-H322M after 48 hr by Alamar Blue assay
Hs-578T = test: Cytotoxicity against Homo sapiens (human) Hs 578T after 48 hr by Alamar Blue assay
[7] = Cytotoxicity against Homo sapiens (human) HL-60(TB) after 48 hr by Alamar Blue assay; details: HL-60, 48 h
Malme-3M = test: Cytotoxicity against Homo sapiens (human) MALME-3M after 48 hr by Alamar Blue assay
SK-MEL-28 = test: Cytotoxicity against Homo sapiens (human) SK-MEL-28 after 48 hr by Alamar Blue assay; details: SK-MEL-28, 48 h
HCT-116 = test: Cytotoxicity against Homo sapiens (human) HCT116 after 48 hr by Alamar Blue assay; details: HCT-116, 48 h
A549 = test: Cytotoxicity against Homo sapiens (human) A549 after 48 hr by Alamar Blue assay; details: A549, 48 h
KM12 = test: Cytotoxicity against Homo sapiens (human) KM12 after 48 hr by Alamar Blue assay; details: KM12, 48 h
RXF 393 = test: Cytotoxicity against Homo sapiens (human) RXF393 after 48 hr by Alamar Blue assay; details: RXF 393, 48 h
UACC-257 = test: Cytotoxicity against Homo sapiens (human) UACC257 after 48 hr by Alamar Blue assay; details: UACC-257, 48 h
NCI/ADR-RES = test: Cytotoxicity against Homo sapiens (human) NCI/ADR-RES after 48 hr by Alamar Blue assay
HCT-15 = test: Cytotoxicity against Homo sapiens (human) HCT15 after 48 hr by Alamar Blue assay; details: HCT-15, 48 h
UO-31 = test: Cytotoxicity against Homo sapiens (human) UO31 after 48 hr by Alamar Blue assay; details: UO-31, 48 h
UACC-62 = test: Cytotoxicity against Homo sapiens (human) UACC62 after 48 hr by Alamar Blue assay; details: UACC-62, 48 h
NCI-H23 = test: Cytotoxicity against Homo sapiens (human) NCI-H23 after 48 hr by Alamar Blue assay; details: NCI-H23, 48 h
MDA-MB-231 = test: Cytotoxicity against Homo sapiens (human) MDA-MB-231 after 48 hr by Alamar Blue assay; details: MDA-MB-231, 48 h
DU-145 = test: Cytotoxicity against Homo sapiens (human) DU145 after 48 hr by Alamar Blue assay; details: DU-145, 48 h
CAKI-1 = test: Cytotoxicity against Homo sapiens (human) Caki1 after 48 hr by Alamar Blue assay; details: CAKI-1, 48 h
MOLT-4 = test: Cytotoxicity against Homo sapiens (human) MOLT4 after 48 hr by Alamar Blue assay; details: MOLT-4, 48 h
RPMI-8226 = test: Cytotoxicity against Homo sapiens (human) RPMI8226 after 48 hr by Alamar Blue assay; details: RPMI-8226, 48 h
A498 = test: Cytotoxicity against Homo sapiens (human) A498 after 48 hr by Alamar Blue assay; details: A498, 48 h

COc1ccc(C2=NOC3=c4ccccc4=CSC3=C2c2ccccc2)cc1
growth at 100 µM (MCF7 [1]): 97%
growth at 100 µM (SF-268 [2]): 106%
growth at 100 µM (NCI-H460 [3]): 101%

Cc1ccc(C2=C3SC=c4ccccc4=C3ON=C2c2ccc(Cl)cc2)cc1
GI50 (SK-MEL-5): 53.1 µM
GI50 (TK-10): > 100 µM
GI50 (NCI-H226): > 100 µM
GI50 (IGROV-1): > 10 µM
GI50 (U-251): 20 µM
GI50 (LOX IMVI): 50 µM
GI50 (PC-3): 21.6 µM
GI50 (NCI-H460 [4]): > 100 µM
GI50 (OVCAR-4): > 100 µM
GI50 (SR): 36.5 µM
GI50 (OVCAR-8): 11.6 µM
GI50 (MCF7 [5]): 31.2 µM
GI50 (786-0): 21.2 µM
GI50 (OVCAR-5): > 100 µM
GI50 (EKVX): > 100 µM
GI50 (HCC 2998): > 100 µM
GI50 (COLO 205): 46.2 µM
GI50 (HT-29): > 100 µM
GI50 (M14): > 100 µM
GI50 (SF-268 [6]): 12.1 µM
GI50 (SF-539): > 100 µM
GI50 (SF-295): > 100 µM
GI50 (T47D): 31.4 µM
GI50 (HOP-62): > 100 µM
GI50 (SN12C): 11.3 µM
GI50 (SW-620): 55.6 µM
GI50 (OVCAR-3): > 100 µM
GI50 (ACHN): > 100 µM
GI50 (K562): 20.6 µM
GI50 (SNB-19): > 100 µM
GI50 (HOP-92): 26.5 µM
GI50 (BT-549): 41.2 µM
GI50 (NCI-H522): 15.1 µM
GI50 (MDA-MB-435): 44.2 µM
GI50 (SK-MEL-2): > 100 µM
GI50 (NCI-H322M): > 100 µM
growth at 100 µM (MCF7 [1]): 2%
GI50 (Hs-578T): > 100 µM
GI50 [7]: 18.2 pM
GI50 (Malme-3M): 22.1 µM
GI50 (SK-MEL-28): > 100 µM
GI50 (HCT-116): 62.7 µM
GI50 (A549): > 100 µM
GI50 (KM12): > 100 µM
GI50 (RXF 393): > 100 µM
GI50 (UACC-257): 25.6 µM
GI50 (NCI/ADR-RES): > 100 µM
GI50 (HCT-15): 81.2 µM
GI50 (UO-31): > 100 µM
GI50 (UACC-62): > 100 µM
GI50 (NCI-H23): 16.6 µM
GI50 (MDA-MB-231): > 100 µM
GI50 (DU-145): > 100 µM
growth at 100 µM (SF-268 [2]): 37%
GI50 (CAKI-1): > 100 µM
growth at 100 µM (NCI-H460 [3]): 91%
GI50 (MOLT-4): 12.5 µM
GI50 (RPMI-8226): 11.8 µM
GI50 (A498): > 100 µM
